The results in this text go back to patent publication US4608381A, “Antiinflammatory 2-(trifluoroethylsulfonyl)benzimidazoles” (Boehringer Ingelheim Pharmaceuticals, Inc., priority 1985, dated 1986).

For orientation: inhibition in vivo means the percentage by which the read-out fell short of the control. As usually defined, the % Inhibition is the percentage by which the read-out fell short of the control.

Molecules are shown by their SMILES.

The test system of one assay is male CD rats. Description: Adjuvant-Induced Developing Arthritis Assay. The assay is classed as in vivo. The note with it: Rattus norvegicus, po, 336 h, 14 days from adjuvant injection, non-injected hind paw volume; for inhibition in vivo at 25 mg/kg: 25 mg/kg orally once daily; for inhibition in vivo at 50 mg/kg: 50 mg/kg orally once daily. The source says:
This assay is used to determine the ability of compounds to affect the immunological processes involved in the induction and development of arthritis and represents a standard model for which there is good correlation with human efficacy. It is described and discussed in Newbould, B. B., Chemotherapy of Arthritis Induced in Rats by Mycobacterial Adjuvant., Brit. J. Pharmacol. 21:127-136 (1963) and Federation Proceedings, Models Used for the Study and Therapy of Rheumatoid Arthritis - Symposium of the American Society for Pharmacology and Experimental Therapeutics, Vol. 32, No. 2 (1973). The procedural details and results observed in the experiments reported here are as follows.
(§1) Polyarthritis is induced in male CD rats (150-170 g) as follows. Heat-killed Mycobacterium butyricum (0.1 ml of a […] 5 mg/ml adjuvant suspension in light mineral oil) is injected subcutaneously into the plantar surface of the right hind foot of each animal. At least 10 rats are used in each test group. Animals are dosed orally with one of the compounds under assay immediately after adjuvant injection, and once daily for a total of 14 days. Untreated normal and arthritic control groups are used as comparison for test compound effect. Foot volumes are measured 24 hours after the final dose by mercury displacement to the lateral malleolus. Mean displacement volumes and their standard errors are calculated for the non-injected hind paws.
The results are expressed as the percent of the mean displacement volume of the control observed in animals treated with the specified compound at the indicated daily dosage level and are as set forth in Table 1: […]

Assay [1] relates to Rats in which polyarthritis has become established. Kind of assay: Adjuvant-Induced Established Arthritis Assay. The assay is classed as in vivo, rat. The note with it: days 14-27, non-injected paw volume. Here is the method: as §1
This assay is used to determine the ability of compounds to affect an established chronic inflammatory condition.
Polyarthritis is induced as described in Example 8. Rats in which polyarthritis has become established are selected 14 days after receiving the adjuvant suspension. They are treated daily with oral doses of test compound for 14 days (days 14-27). Foot volumes of the non-injected paws are measured as in 8, 24 hours after the final dose. Untreated arthritic control groups are used as comparison for test compound effect as described in Example 8.

Take `O=S(=O)(CC(F)(F)F)c1nc2cc(Cl)ccc2[nH]1` [Example 2, 5-Chloro-2-(2,2,2-trifluoroethylsulfonyl)-1H-benzimidozole]: the inhibition in vivo at 25 mg/kg in the assay with male CD rats came out at 28%. As for `Cc1ccc2[nH]c(S(=O)(=O)CC(F)(F)F)nc2c1` [Example 1, 5-Methyl-2-(2,2,2-trifluoroethylsulfonyl)-1H-benzimidazole], the inhibition in vivo at 25 mg/kg in the assay with male CD rats was found to be 52%. The inhibition in vivo at 50 mg/kg in the assay with male CD rats worked out at 72%. Besides, the “% Inhibition” value in assay [1] (50 mg/kg orally daily) amounted to 30%; in assay [1] (75 mg/kg orally daily), 42%; in assay [1] (100 mg/kg orally daily), 60%.

As to `Cc1cc2nc(S(=O)(=O)CC(F)(F)F)[nH]c2cc1F` [Example 8, 6-Fluoro-5-methYl-2-(2,2,2-trifluoroethylsulfonyl)-1H-benzimidazole], the inhibition in vivo at 50 mg/kg in the assay with male CD rats was determined as 64%. For `O=S(=O)(CC(F)(F)F)c1nc2cc(F)ccc2[nH]1` [Example 5, 5-Fluoro-2-(2,2,2-trifluoroethylsulfonyl)-1H-benzimidazole], the inhibition in vivo at 25 mg/kg with male CD rats came out at 43%. With `O=S(=O)(CC(F)(F)F)c1nc2cc(Cl)c(Cl)cc2[nH]1` [Example 3, 5,6-Dichloro-2-(2,2,2-trifluoroethylsulfonyl)-1H-benzimidazole], the inhibition in vivo at 25 mg/kg with male CD rats came to 24%. Turning to `O=S(=O)(CC(F)(F)F)c1nc2ccccc2[nH]1` [Example 4, 2-(2,2,2-Trifluoroethylsulfonyl)-1H-benzimidazole], the inhibition in vivo at 25 mg/kg in the assay on male CD rats was 52%. In addition, the “% Inhibition” value in assay [1] (50 mg/kg orally daily) turned out to be 45%.

In the case of `Cc1cc2nc(S(=O)(=O)CC(F)(F)F)[nH]c2cc1C` [Example 6, 5,6-Dimethyl-2-(2,2,2-trifluoroethylsulfonyl)-1H-benzimidazole], the inhibition in vivo at 25 mg/kg with male CD rats worked out at 18%. As to `CCc1ccc2[nH]c(S(=O)(=O)CC(F)(F)F)nc2c1` [Example 7, 5-Ethyl-2-(2,2,2-trifluoroethylsulfonyl)-1H-benzimidazole], in the assay on male CD rats, the inhibition in vivo at 25 mg/kg is 34%.
